Paper PMC11209693 (ACS Omega, 2024)

Tests used:
pancreatic lipase [1] = target: T1, pancreatic lipase (Homo sapiens, UniProt P16233); experiment: microscale thermophoresis; format: binding
T1 sequence (P16233 17-465): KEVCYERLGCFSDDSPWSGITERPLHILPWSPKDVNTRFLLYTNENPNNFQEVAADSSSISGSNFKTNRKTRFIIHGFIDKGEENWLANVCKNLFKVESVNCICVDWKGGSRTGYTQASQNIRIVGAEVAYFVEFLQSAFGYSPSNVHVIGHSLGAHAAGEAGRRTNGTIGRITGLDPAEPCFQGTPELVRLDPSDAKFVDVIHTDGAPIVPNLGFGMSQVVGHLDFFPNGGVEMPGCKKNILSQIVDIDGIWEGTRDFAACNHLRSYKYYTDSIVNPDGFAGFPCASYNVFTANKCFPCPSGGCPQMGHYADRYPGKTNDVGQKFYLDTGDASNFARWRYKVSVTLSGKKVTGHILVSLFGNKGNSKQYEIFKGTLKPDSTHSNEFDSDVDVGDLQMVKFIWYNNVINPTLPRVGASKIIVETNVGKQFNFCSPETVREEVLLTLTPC

pancreatic lipase [2] = target: T2, pancreatic lipase (Sus scrofa, UniProt P00591); experiment: in vitro pancreatic lipase inhibition assay; format: biochemical
T2 sequence (P00591 1-450): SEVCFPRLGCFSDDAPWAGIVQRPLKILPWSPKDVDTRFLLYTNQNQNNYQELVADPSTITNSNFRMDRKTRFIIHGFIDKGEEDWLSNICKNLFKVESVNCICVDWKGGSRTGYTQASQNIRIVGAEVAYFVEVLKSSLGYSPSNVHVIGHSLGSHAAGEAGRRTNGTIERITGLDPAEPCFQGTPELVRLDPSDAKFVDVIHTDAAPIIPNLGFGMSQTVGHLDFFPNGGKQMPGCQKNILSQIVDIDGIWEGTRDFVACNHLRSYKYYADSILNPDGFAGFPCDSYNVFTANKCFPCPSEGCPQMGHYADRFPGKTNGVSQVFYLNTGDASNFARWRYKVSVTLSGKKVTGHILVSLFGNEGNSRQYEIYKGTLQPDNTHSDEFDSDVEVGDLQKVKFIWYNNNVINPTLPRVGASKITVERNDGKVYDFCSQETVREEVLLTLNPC

## COc1cc(/C=C/C(=O)CC(=O)/C=C/c2ccc(O)c(OC)c2)ccc1O [A6, curcumin, reference compound]
Pancreatic lipase [1]
  Kd: 23.5 µM

## COc1cc(CCC(=O)CC(=O)CCc2ccc(O)c(OC)c2)ccc1O [C6, 1,7-bis(4-hydroxy-3-methoxyphenyl)heptane-3,5-dione]
Pancreatic lipase [2]
  IC50: 98.6 µM
Pancreatic lipase [1]
  Kd: 18.2 µM

## O=C(CCc1ccc(O)cc1)CC(=O)CCc1ccc(O)cc1 [C4, 1,7-bis(4-hydroxyphenyl)heptane-3,5-dione]
Pancreatic lipase [2]
  IC50: 42.8 µM
Pancreatic lipase [1]
  Kd: 2.91 µM
